Assays:
A2A(h) = biological target: T1, A2A(h) (Homo sapiens, UniProt P29274); assay: A2A(h) binding assay; conditions: 1.0E−05 M
T1 construct: expressed in transfected cells; host or cells: HEK-293 cells

AT1(h) = biological target: T2, AT1(h) (Homo sapiens, UniProt P30556); assay: AT1(h) binding assay; conditions: read-out: % Inhibition of Control Specific Binding
T2 construct: expressed in transfected cells; host or cells: CHO cells

B2(h) = biological target: T3, B2(h) (Homo sapiens, UniProt P30411); assay: B2(h) binding assay; conditions: 1.0E−05 M; read-out: % Inhibition of Control Specific Binding
T3 construct: expressed in transfected cells; host or cells: CHO cells
T3 sequence (P30411 whole entry): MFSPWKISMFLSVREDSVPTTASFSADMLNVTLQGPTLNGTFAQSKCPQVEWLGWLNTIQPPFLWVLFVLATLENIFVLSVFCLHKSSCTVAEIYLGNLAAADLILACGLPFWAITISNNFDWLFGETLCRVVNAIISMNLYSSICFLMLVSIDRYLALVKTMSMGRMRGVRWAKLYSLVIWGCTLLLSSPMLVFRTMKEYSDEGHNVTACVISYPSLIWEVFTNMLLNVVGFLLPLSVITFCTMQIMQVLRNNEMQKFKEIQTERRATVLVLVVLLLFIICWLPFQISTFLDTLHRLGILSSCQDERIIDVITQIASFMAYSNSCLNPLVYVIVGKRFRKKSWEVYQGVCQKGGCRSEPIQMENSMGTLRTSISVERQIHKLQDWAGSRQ

CB1(h) = biological target: T4, CB1(h) (Homo sapiens, UniProt P21554); assay: CB1(h) binding assay; conditions: 1.0E−05 M; read-out: % Inhibition of Control Specific Binding
T4 construct: expressed in transfected cells; host or cells: HEK-293 cells
T4 sequence (P21554 whole entry): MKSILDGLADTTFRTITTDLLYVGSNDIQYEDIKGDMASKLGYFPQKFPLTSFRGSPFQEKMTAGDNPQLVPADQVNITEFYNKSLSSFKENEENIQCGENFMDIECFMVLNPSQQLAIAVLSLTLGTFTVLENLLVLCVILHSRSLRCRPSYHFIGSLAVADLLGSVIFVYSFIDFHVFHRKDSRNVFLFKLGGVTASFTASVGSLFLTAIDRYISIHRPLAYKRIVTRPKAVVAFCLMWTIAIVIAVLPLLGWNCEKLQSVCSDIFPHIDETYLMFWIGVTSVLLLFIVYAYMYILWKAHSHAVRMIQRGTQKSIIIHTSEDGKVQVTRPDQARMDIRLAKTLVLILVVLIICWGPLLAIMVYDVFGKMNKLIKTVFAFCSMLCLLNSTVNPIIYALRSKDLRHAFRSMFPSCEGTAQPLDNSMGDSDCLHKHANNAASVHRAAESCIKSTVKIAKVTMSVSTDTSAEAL

CB2(h) = biological target: T5, CB2(h) (Homo sapiens, UniProt P34972); assay: CB2(h) binding assay; conditions: 1.0E−05 M; read-out: % Inhibition of Control Specific Binding
T5 construct: expressed in transfected cells; host or cells: HEK-293 cells

CCKB(h) (CCK2) = biological target: T6, CCKB(h) (CCK2) (Homo sapiens, UniProt P32239); assay: CCKB(h) (CCK2) binding assay; conditions: read-out: % Inhibition of Control Specific Binding
T6 construct: expressed in transfected cells; host or cells: HEK-293 cells

D1(h) = biological target: T7, D1(h) (Homo sapiens, UniProt P21728); assay: D1(h) binding assay; conditions: read-out: % Inhibition of Control Specific Binding
T7 construct: expressed in transfected cells; host or cells: CHO cells
T7 sequence (P21728 whole entry): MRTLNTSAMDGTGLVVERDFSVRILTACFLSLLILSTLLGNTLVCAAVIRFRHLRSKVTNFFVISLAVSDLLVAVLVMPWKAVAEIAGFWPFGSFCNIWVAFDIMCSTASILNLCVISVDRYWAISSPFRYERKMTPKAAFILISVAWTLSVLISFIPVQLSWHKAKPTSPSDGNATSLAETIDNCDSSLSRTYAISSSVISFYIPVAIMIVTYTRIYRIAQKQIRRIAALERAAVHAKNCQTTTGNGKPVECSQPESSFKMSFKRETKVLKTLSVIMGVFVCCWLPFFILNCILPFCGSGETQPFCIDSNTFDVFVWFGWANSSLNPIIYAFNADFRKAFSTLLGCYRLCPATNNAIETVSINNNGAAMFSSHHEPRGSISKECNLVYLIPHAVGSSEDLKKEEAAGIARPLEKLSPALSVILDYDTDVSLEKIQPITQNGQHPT

D3(h) = biological target: T8, D3(h) (Homo sapiens, UniProt P35462); assay: D3(h) binding assay; conditions: 1.0E−05 M; read-out: % Inhibition of Control Specific Binding
T8 construct: expressed in transfected cells; host or cells: CHO cells
T8 sequence (P35462 whole entry): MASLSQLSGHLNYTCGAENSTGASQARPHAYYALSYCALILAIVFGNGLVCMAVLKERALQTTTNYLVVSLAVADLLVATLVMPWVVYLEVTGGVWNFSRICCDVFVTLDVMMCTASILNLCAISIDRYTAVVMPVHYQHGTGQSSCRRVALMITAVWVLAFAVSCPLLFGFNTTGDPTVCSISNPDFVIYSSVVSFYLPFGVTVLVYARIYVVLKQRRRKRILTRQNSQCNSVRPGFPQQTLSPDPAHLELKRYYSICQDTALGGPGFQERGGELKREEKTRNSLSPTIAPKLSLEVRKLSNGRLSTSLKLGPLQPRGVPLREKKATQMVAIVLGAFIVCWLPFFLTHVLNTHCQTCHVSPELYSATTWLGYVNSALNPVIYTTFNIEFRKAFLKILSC

ETA(h) = biological target: T9, ETA(h) (Homo sapiens, UniProt P25101); assay: ETA(h) binding assay; conditions: 1.0E−05 M; read-out: % Inhibition of Control Specific Binding
T9 construct: expressed in transfected cells; host or cells: CHO cells

GABA (non-selective) = type: binding, rat; conditions: 1.0E−05 M
Kainate = Kainate binding assay; design: species or system rat; conditions: 1.0E−05 M
H2(h) = biological target: T10, H2(h) (Homo sapiens, UniProt P25021); assay: H2(h) binding assay; conditions: read-out: % Inhibition of Control Specific Binding
T10 construct: expressed in transfected cells; host or cells: CHO cells
T10 sequence (P25021 whole entry): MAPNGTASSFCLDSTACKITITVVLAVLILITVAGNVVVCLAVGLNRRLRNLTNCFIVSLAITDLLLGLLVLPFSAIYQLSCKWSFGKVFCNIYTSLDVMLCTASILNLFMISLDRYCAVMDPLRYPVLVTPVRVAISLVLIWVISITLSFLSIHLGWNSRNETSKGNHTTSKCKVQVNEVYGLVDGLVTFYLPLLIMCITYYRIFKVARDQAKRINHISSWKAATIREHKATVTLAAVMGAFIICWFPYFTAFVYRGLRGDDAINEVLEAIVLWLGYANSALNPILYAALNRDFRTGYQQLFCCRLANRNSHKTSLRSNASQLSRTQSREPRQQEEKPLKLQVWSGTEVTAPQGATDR

I2 (central) = I2 (central) binding assay; design: species or system rat; conditions: 1.0E−05 M
MC4(h) = biological target: T11, MC4(h) (Homo sapiens, UniProt P32245); assay: MC4(h) binding assay; conditions: 1.0E−05 M; read-out: % Inhibition of Control Specific Binding
T11 construct: expressed in transfected cells; host or cells: HEK-293 cells
T11 sequence (P32245 whole entry): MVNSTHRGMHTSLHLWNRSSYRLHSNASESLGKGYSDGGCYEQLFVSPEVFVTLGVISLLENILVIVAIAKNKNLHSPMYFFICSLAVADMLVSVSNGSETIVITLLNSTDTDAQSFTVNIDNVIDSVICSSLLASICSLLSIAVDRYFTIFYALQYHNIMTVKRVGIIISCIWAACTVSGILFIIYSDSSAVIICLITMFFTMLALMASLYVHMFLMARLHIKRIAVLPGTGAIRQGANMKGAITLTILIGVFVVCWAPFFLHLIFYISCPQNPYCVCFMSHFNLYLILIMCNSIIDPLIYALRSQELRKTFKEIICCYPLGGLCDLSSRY

NK1(h) = biological target: T12, NK1(h) (Homo sapiens, UniProt P25103); assay: NK1(h) binding assay; conditions: read-out: % Inhibition of Control Specific Binding
T12 construct: NK1(h); U-373MG cells; [Sar^9,Met(O2)^11]-SP; Heuillet et al. (1993); endogenous in cells; host or cells: U-373MG cells
T12 sequence (P25103 whole entry): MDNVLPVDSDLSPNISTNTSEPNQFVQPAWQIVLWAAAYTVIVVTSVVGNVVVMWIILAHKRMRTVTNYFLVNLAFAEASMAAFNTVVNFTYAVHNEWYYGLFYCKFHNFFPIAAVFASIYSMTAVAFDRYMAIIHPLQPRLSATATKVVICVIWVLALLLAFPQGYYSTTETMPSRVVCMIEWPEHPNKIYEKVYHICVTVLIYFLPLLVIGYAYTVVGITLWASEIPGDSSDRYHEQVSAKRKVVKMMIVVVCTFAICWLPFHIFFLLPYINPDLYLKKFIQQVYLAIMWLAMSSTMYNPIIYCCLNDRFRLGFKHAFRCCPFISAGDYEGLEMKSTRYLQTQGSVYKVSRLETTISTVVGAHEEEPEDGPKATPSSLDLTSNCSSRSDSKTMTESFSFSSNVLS

Opiate (non-selective) = Opiate (non-selective) binding assay; design: species or system rat; conditions: 1.0E−05 M
PCP = PCP binding assay; design: species or system rat; conditions: 1.0E−05 M
P2Y = P2Y binding assay; design: species or system rat; conditions: 1.0E−05 M
5-HT (non-selective) = 5-HT (non-selective) binding assay; design: species or system rat; conditions: 1.0E−05 M
TRH = TRH binding assay; design: species or system rat; conditions: 1.0E−05 M
[1] = biological target: Ca^2+ channel (L, DHP site) (Rattus norvegicus, UniProt P22002); assay: Ca^2+ channel (L, DHP site) binding assay; conditions: read-out: % Inhibition of Control Specific Binding
[2] = biological target: Ca^2+ channel (L, diltiazem site) (benzothiazepines) (Rattus norvegicus, UniProt P22002); assay: Ca^2+ channel (L, diltiazem site) binding assay; conditions: read-out: % Inhibition of Control Specific Binding
[3] = test system: Ca^2+ channel (L, verapamil site) (phenylalkylamines); assay: Ca^2+ channel (L, verapamil site) binding assay; design: species or system rat; conditions: 1.0E−05 M
Cl-channel = Cl-channel binding assay; design: species or system rat; conditions: 1.0E−05 M
NE transporter(h) = biological target: T13, NE transporter(h) (Homo sapiens, UniProt P23975); assay: NE transporter(h) binding assay; conditions: read-out: % Inhibition of Control Specific Binding
T13 construct: expressed in transfected cells; host or cells: MDCK cells

GABA transporter = GABA transporter (Rattus norvegicus, UniProt P23978); assay: GABA transporter binding assay; conditions: 1.0E−05 M; read-out: % Inhibition of Control Specific Binding
5-HT transporter(h) = biological target: T14, 5-HT transporter(h) (Homo sapiens, UniProt P31645); assay: 5-HT transporter(h) binding assay; conditions: read-out: % Inhibition of Control Specific Binding
T14 construct: expressed in transfected cells; host or cells: HEK-293 cells

Phosphodiesterase 1 = Phosphodiesterase 1 enzyme assay; type: biochemical, bovine; conditions: 1.0E−05 M
Phosphodiesterase 2(h) = biological target: T15, Phosphodiesterase 2(h) (Homo sapiens, UniProt O00408); assay: Phosphodiesterase 2(h) enzyme assay; type: biochemical; conditions: 1.0E−05 M
T15 construct: differentiated U-; endogenous in cells; host or cells: differentiated U-937 cells

Guanylyl cyclase (basal) = biological target: T16, Guanylyl cyclase (basal) (Bos taurus, UniProt P16068+P19687); assay: Guanylyl cyclase (basal) enzyme assay; type: biochemical, bovine; conditions: 1.0E−05 M
T16 construct: bovine lung; from tissue; host or cells: bovine lung

Protein kinase C = Protein kinase C enzyme assay; type: biochemical, rat; conditions: 1.0E−05 M
Acetylcholinesterase(h) = biological target: T17, Acetylcholinesterase(h) (Homo sapiens, UniProt P22303); assay: Acetylcholinesterase(h) enzyme assay; type: biochemical; conditions: 1.0E−05 M
T17 construct: host or cells: HEK-293 cells
T17 sequence (P22303 32-614): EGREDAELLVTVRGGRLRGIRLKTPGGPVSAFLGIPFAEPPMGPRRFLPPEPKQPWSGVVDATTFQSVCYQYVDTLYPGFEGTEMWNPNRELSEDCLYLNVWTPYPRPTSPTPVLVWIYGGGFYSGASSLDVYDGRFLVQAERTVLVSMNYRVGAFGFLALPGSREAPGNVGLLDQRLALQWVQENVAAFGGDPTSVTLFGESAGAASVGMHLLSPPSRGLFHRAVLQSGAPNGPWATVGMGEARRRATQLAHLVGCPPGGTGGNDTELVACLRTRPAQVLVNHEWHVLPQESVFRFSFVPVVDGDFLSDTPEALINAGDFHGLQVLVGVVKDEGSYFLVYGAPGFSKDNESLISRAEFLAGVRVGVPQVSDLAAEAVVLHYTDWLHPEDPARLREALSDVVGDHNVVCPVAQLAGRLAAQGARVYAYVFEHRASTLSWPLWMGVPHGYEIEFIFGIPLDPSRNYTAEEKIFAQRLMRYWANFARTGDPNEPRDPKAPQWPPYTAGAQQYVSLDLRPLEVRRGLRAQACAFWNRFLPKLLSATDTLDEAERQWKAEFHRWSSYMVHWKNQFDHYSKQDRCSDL

GABA transaminase = biological target: T18, GABA transaminase (Rattus norvegicus, UniProt P50554); assay: GABA transaminase enzyme assay; type: biochemical; conditions: 1.0E−05 M
T18 construct: rat brain; from tissue; host or cells: rat brain
T18 sequence (P50554 28-500): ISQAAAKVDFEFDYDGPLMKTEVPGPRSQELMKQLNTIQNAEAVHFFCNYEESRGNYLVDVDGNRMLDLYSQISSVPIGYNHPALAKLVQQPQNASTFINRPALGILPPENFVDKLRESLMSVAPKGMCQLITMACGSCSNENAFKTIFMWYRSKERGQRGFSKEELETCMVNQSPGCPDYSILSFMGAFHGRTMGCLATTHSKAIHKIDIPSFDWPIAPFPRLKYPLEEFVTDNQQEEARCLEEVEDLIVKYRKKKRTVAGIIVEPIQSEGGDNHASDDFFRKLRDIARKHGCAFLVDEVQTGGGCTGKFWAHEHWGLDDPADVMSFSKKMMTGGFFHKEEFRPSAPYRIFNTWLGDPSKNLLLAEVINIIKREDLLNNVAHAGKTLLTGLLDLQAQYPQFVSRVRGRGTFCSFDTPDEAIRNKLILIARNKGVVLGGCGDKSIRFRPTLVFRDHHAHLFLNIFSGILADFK

Tyrosine hydroxylase = biological target: T19, Tyrosine hydroxylase (Rattus norvegicus, UniProt P04177); assay: Tyrosine hydroxylase enzyme assay; type: biochemical; conditions: 1.0E−05 M
T19 construct: rat striatum; from tissue; host or cells: rat striatum

ATPase (Na^+/K^+) = biological target: T20, ATPase (Na^+/K^+) (Canis lupus familiaris, UniProt P50997); assay: ATPase (Na^+/K^+) enzyme assay; type: biochemical, dog; conditions: 1.0E−05 M
T20 construct: dog kidney; from tissue; host or cells: dog kidney

T1 sequence (P29274 whole entry): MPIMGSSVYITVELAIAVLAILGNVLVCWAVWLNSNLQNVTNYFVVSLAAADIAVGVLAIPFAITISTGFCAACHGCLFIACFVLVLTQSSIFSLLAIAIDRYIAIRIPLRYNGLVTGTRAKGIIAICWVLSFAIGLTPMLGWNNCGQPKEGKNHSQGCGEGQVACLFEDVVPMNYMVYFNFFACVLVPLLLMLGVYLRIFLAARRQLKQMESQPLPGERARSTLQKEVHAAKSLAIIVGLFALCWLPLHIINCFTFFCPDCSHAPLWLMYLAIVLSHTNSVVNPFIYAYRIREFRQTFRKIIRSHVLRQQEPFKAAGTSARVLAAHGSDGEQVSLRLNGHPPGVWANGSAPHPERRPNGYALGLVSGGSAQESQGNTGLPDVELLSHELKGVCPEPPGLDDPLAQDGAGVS
T2 sequence (P30556 whole entry): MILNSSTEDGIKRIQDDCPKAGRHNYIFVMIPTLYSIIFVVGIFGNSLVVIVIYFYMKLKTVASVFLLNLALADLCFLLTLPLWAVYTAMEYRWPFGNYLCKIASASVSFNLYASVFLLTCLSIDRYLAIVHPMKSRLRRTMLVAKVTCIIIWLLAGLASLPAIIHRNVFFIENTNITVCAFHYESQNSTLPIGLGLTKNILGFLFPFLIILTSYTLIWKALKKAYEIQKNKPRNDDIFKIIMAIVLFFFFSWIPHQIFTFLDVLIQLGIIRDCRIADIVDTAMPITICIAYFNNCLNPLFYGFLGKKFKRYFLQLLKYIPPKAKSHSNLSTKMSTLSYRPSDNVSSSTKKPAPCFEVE

For N#Cc1ccc2c(ccn2CCCCCB(O)O)c1 [Example 20, 5-(5-cyano-1H-indol-1-yl)pentylboronic acid], the “% Inhibition of Control Specific Binding” value (A2A(h)) was 16%, the inhibition at 10 µM (AT1(h)) was -3% and the inhibition at 10 µM (B2(h)) was 18%. For the same compound, the inhibition at 10 µM (CB1(h)) was -2%, the inhibition at 10 µM (CB2(h)) was -12% and the inhibition at 10 µM (CCKB(h) (CCK2)) was 5%. It also gave an inhibition at 10 µM (D1(h)) of 0%, an inhibition at 10 µM (D3(h)) of 4% and an inhibition at 10 µM (ETA(h)) of -25%. For the same compound, the “% Inhibition of Control Specific Binding” value (GABA (non-selective)) was −15%, the “% Inhibition of Control Specific Binding” value (Kainate) was −6% and the inhibition at 10 µM (H2(h)) was 15%. For the same compound, the “% Inhibition of Control Specific Binding” value (I2 (central)) was 1%, the inhibition at 10 µM (MC4(h)) was 2% and the inhibition at 10 µM (NK1(h)) was 12%. The “% Inhibition of Control Specific Binding” value (Opiate (non-selective)) was 20%, the “% Inhibition of Control Specific Binding” value (PCP) was 5% and the “% Inhibition of Control Specific Binding” value (P2Y) was −19%. For the same compound, the “% Inhibition of Control Specific Binding” value (5-HT (non-selective)) was −1%, the “% Inhibition of Control Specific Binding” value (TRH) was −17% and the inhibition at 10 µM [1] was -10%. For the same compound, the inhibition at 10 µM [2] was -1%, the “% Inhibition of Control Specific Binding” value [3] was −12% and the “% Inhibition of Control Specific Binding” value (Cl-channel) was 26%. The inhibition at 10 µM (NE transporter(h)) was 15%, the inhibition at 10 µM (GABA transporter) was -13% and the inhibition at 10 µM (5-HT transporter(h)) was 90%. The “% Inhibition of Control Values” (Phosphodiesterase 1) was 7%, the “% Inhibition of Control Values” (Phosphodiesterase 2(h)) was 95% and the “% Stimulation Relative to Control” value (Guanylyl cyclase (basal)) was 0%. For the same compound, the “% Inhibition of Control Values” (Protein kinase C) was 0%, the “% Inhibition of Control Values” (Acetylcholinesterase(h)) was 11% and the “% Inhibition of Control Values” (GABA transaminase) was −2%. For the same compound, the “% Inhibition of Control Values” (Tyrosine hydroxylase) was 4% and the “% Inhibition of Control Values” (ATPase (Na^+/K^+)) was 8%.

Source: patent US20090264384A1, “INDOLE, BENZIMIDAZOLE, AND BENZOLACTAM BORONIC ACID COMPOUNDS, ANALOGS THEREOF AND METHODS OF USE THEREOF” (Nuada, Inc., priority 2004, published 2009)
